Results reported in US9113629B2, “4-amino-6-(4-substituted-phenyl)-picolinates and 6-amino-2-(4-substituted-phenyl)-pyrimidine-4-carboxylates and their use as herbicides” (DOW AGROSCIENCES LLC, priority 2013, dated 2015).

Tests used:
Assay type in all cases: in vivo
[1] = test system: IPOHE: ivyleaf morningglory (Ipomoea hederecea); assay: Pre-emergent Test I herbicidal activity; conditions: pre-emergence, 336 h, read-out: Visual Growth Reduction (%) 14 Days After Application, IPOHE
Experimental: (§1) Pre-emergent Test I Seeds of test species were planted into round plastic pots (5-inch diameter) containing sandy loam soil. After planting, all pots were sub-irrigated 16 h prior to compound application. Compounds were dissolved in a 97:3 v/v (volume/volume) mixture of acetone and dimethyl sulfoxide (DMSO) and diluted to the appropriate concentration in a final application solution containing water, acetone, isopropanol, DMSO and Agri-dex (crop oil concentrate) in a 59:23:15:1.0:1.5 v/v ratio and 0.02% w/v (weight/volume) of Triton X-155 to obtain the spray solution containing the highest application rate. Additional application rates were obtained by serial dilution of the high rate solution with the above application solution. Formulated compound (2.7 mL) was applied pipetted evenly over the soil surface followed by incorporation with water (15 mL). Following treatment, pots were returned to the greenhouse for the duration of the experiment. The greenhouse was programmed for an approximate 15 h photoperiod which was maintained at about 23-29° C. during the day and 22-28° C. during the night. Nutrients and water were added on a regular basis through surface irrigation and supplemental lighting was provided with overhead metal halide 1000-Watt lamps as necessary. Herbicidal effect ratings were obtained 14 days after treatment. All evaluations were made relative to appropriate controls on a scale of 0 to 100 where 0 represents no herbicidal effect and 100 represents plant death or lack of emergence from the soil.

[2] = test system: SETFA: giant foxtail (Setaria faberi); assay: Pre-emergent Test I herbicidal activity; conditions: pre-emergence, 336 h, 4 kg ai/ha, read-out: Visual Growth Reduction (%) 14 Days After Application, SETFA
Experimental: as §1

LAMSS = assay: Post-emergent Test III, herbicidal activity in wheat and barley; conditions: for pest or weed control at 35 g/ha / pest or weed control at 70 g/ha / pest or weed control at 140 g/ha: post-emergence, 504 h, read-out: Visual Growth Reduction (%) 21 Days After Application LAMSS; for pest or weed control at 35 g/ha: 35 g ai/ha; for pest or weed control at 70 g/ha: 70 g ai/ha; for pest or weed control at 140 g/ha: 140 g ai/ha; for GR50 LAMSS / GR80 LAMSS: probit analysis, 21 days after application; for GR50 LAMSS: dose for growth reduction of 50 percent; for GR80 LAMSS: dose for growth reduction of 80 percent
How it was run: (§2)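 Plants at the second to third true-leaf stage, grown in a greenhouse at about 18/17 °C with a 14 h photoperiod, were sprayed post-emergence at 187 L/ha with the high rate and ½× to 1/16× serial dilutions in an acetone/DMSO/crop-oil/surfactant carrier. Injury was rated visually at 21 d on a 0–100% scale, and GR20–GR90 were derived by probit analysis.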

[3] = test system: VERPE: bird's-eye speedwell (veronica persica); assay: as above; conditions: for pest or weed control at 35 g/ha / pest or weed control at 70 g/ha / pest or weed control at 140 g/ha: Veronica persica, post-emergence, 504 h, read-out: Visual Growth Reduction (%) 21 Days After Application VERPE; for pest or weed control at 35 g/ha: 35 g ai/ha; for pest or weed control at 70 g/ha: 70 g ai/ha; for pest or weed control at 140 g/ha: 140 g ai/ha; for GR50 VERPE / GR80 VERPE: probit analysis, 21 days after application; for GR50 VERPE: dose for growth reduction of 50 percent; for GR80 VERPE: dose for growth reduction of 80 percent
How it was run: as §2

[4] = test system: ALOMY: black-grass (Alopecurus myosuroides); assay: as above; conditions: for pest or weed control at 35 g/ha / pest or weed control at 70 g/ha / pest or weed control at 140 g/ha: Alopecurus myosuroides, post-emergence, 504 h, read-out: Visual Growth Reduction (%) 21 Days After Application ALOMY; for pest or weed control at 35 g/ha: 35 g ai/ha; for pest or weed control at 70 g/ha: 70 g ai/ha; for pest or weed control at 140 g/ha: 140 g ai/ha; for GR50 ALOMY / GR80 ALOMY: probit analysis, 21 days after application; for GR50 ALOMY: dose for growth reduction of 50 percent; for GR80 ALOMY: dose for growth reduction of 80 percent
How it was run: as §2

[5] = test system: PAPRH: common poppy (Papaver rhoeas); assay: as above; conditions: for pest or weed control at 35 g/ha / pest or weed control at 70 g/ha / pest or weed control at 140 g/ha: Papaver rhoeas, post-emergence, 504 h, read-out: Visual Growth Reduction (%) 21 Days After Application PAPRH; for pest or weed control at 35 g/ha: 35 g ai/ha; for pest or weed control at 70 g/ha: 70 g ai/ha; for pest or weed control at 140 g/ha: 140 g ai/ha; for GR50 PAPRH / GR80 PAPRH: probit analysis, 21 days after application; for GR50 PAPRH: dose for growth reduction of 50 percent; for GR80 PAPRH: dose for growth reduction of 80 percent
How it was run: as §2

[6] = test system: BROTE: downy brome (Bromus tectorum); assay: as above; conditions: for pest or weed control at 35 g/ha / pest or weed control at 70 g/ha / pest or weed control at 140 g/ha: Bromus tectorum, post-emergence, 504 h, read-out: Visual Growth Reduction (%) 21 Days After Application BROTE; for pest or weed control at 35 g/ha: 35 g ai/ha; for pest or weed control at 70 g/ha: 70 g ai/ha; for pest or weed control at 140 g/ha: 140 g ai/ha; for GR50 BROTE / GR80 BROTE: probit analysis, 21 days after application; for GR50 BROTE: dose for growth reduction of 50 percent; for GR80 BROTE: dose for growth reduction of 80 percent
How it was run: as §2

[7] = test system: AMARE: redroot pigwseed (Amaranthus retroflexus); assay: Pre-emergent Test I herbicidal activity; conditions: pre-emergence, 336 h, read-out: Visual Growth Reduction (%) 14 Days After Application, AMARE
Experimental: as §1

Structure (SMILES)	pest or weed control at 35 g/ha (LAMSS) [%]	pest or weed control at 70 g/ha (LAMSS) [%]	pest or weed control at 140 g/ha (LAMSS) [%]	GR50 LAMSS (LAMSS) [g ai/ha]	GR80 LAMSS (LAMSS) [g ai/ha]	pest or weed control at 35 g/ha [3] [%]	pest or weed control at 70 g/ha [3] [%]	pest or weed control at 140 g/ha [3] [%]	GR50 VERPE [3] [g ai/ha]	GR80 VERPE [3] [g ai/ha]	pest or weed control at 35 g/ha [4] [%]	pest or weed control at 70 g/ha [4] [%]	pest or weed control at 140 g/ha [4] [%]	GR50 ALOMY [4] [g ai/ha]	GR80 ALOMY [4] [g ai/ha]	pest or weed control at 35 g/ha [5] [%]	pest or weed control at 70 g/ha [5] [%]	pest or weed control at 140 g/ha [5] [%]	GR50 PAPRH [5] [g ai/ha]	GR80 PAPRH [5] [g ai/ha]	further results
Nc1c(F)c(-c2ccc(Br)cc2)nc(C(=O)O)c1Cl [Compound 20]	95 to 100	95 to 100	95 to 100	1	1	60 to 74	60 to 74	75 to 84	33	>140	75 to 84	75 to 84	75 to 84	21	72	95 to 100	95 to 100	95 to 100	1	1	pest or weed control at 4000 g/ha ([1]; 4 kg ai/ha): 95 to 100%; pest or weed control at 4000 g/ha [2]: 95 to 100%; pest or weed control at 35 g/ha [6]: 75 to 84%; pest or weed control at 70 g/ha [6]: 85 to 94%; pest or weed control at 140 g/ha [6]: 85 to 94%; GR50 BROTE [6]: 3 g ai/ha; GR80 BROTE [6]: 87 g ai/ha
N#Cc1ccc(-c2nc(C(=O)O)c(Cl)c(N)c2F)cc1 [Compound 39]	95 to 100	95 to 100	95 to 100	1	1	85 to 94	85 to 94	95 to 100	1	12	0 to 29	45 to 59	45 to 59	111	>140	95 to 100	95 to 100	95 to 100	0	0	pest or weed control at 2000 g/ha ([7]; 2 kg ai/ha): 95 to 100%; pest or weed control at 2000 g/ha ([1]; 2 kg ai/ha): 95 to 100%; pest or weed control at 35 g/ha [6]: 0 to 29%; pest or weed control at 70 g/ha [6]: 0 to 29%; pest or weed control at 140 g/ha [6]: 0 to 29%
COC(=O)c1nc(-c2ccc(OC(F)F)cc2)c(F)c(N)c1Cl [Compound 85]	85 to 94	85 to 94	85 to 94	0	6	30 to 44	45 to 59	60 to 74	90	>140	0 to 29	0 to 29	0 to 29	>140	>140	85 to 94	95 to 100	95 to 100	1	3	pest or weed control at 3760 g/ha ([7]; 3.76 kg ai/ha): 95 to 100%; pest or weed control at 3760 g/ha ([1]; 3.76 kg ai/ha): 30 to 44%; pest or weed control at 35 g/ha [6]: 0 to 29%; pest or weed control at 70 g/ha [6]: 0 to 29%; pest or weed control at 140 g/ha [6]: 0 to 29%; GR50 BROTE [6]: >140 g ai/ha; GR80 BROTE [6]: >140 g ai/ha
